Where two headings read alike, the source gives them in different places.
Columns and labels:
[1] = for AUC0-t,ss / AUC0-τ,ss / AUC0-∞,ss / CLss/F / Cmax,ss / Vz/F / t1/2,ss / λz / Ctrough: arithmetic mean ± SD; for Tmax,ss: median (minimum, maximum)
influenza A (2009 H1N1) = conditions: compared with oseltamivir or pimodivir; cited from earlier work
[2] = in humans; not measured in this study, no reference given; cited from earlier work
[3] = doses up to 1,200 mg; cited from earlier work
[4] = Safety assessment: adverse events (CTCAE 5.0, MedDRA 23.1) in healthy subjects; assay type: in vivo, human
Procedure: Safety assessment was conducted from the first administration of the investigational drug until the end of the trial. Safety indicators included adverse events (AEs), serious adverse events (SAEs), clinical laboratory tests (hematology, biochemistry, and urinalysis), vital signs, physical examination, and 12-lead electrocardiogram.
The severity of AE was assessed according to the CTCAE 5.0 standard and includes grades 1 to 5. Based on the criteria for determining causality between drugs and adverse events, the relationship was classified into five levels: definitely related, probably related, possibly related, probably not related, definitely not related. Among them, definitely related, probably related, and possibly related are defined as drug-related AEs.
Adverse events were coded using Med DRA 23.1 Chinese ([30]) and analyzed based on system organ class (SOC) and preferred term (PT). Adverse events during the treatment period, drug-related adverse events, and serious adverse events were described by frequency, number of cases (n), and incidence rate (%) according to SOC, PT, and the highest severity classification.

influenza A = conditions: adult patients, especially 600 mg once per day; cited from earlier work
[5] = co-administration ZSP1273 600 mg QD + oseltamivir 75 mg BID, oral, 5 days, plasma, day 5
[6] = co-administration ZSP1273 + oseltamivir, plasma, day 5
[7] = co-administration versus monotherapy analysis
[8] = monotherapy (ZSP1273 600 mg QD or oseltamivir 75 mg BID, oral, 5 days), plasma, day 5
[9] = subjects with AUC_%Extrap >20.0% or Rsq <0.800 excluded
[10] = SOC Gastrointestinal disorders, probably related
[11] = SOC General disorders and administration site conditions, possibly related
[12] = SOC Infections and infestations, probably not related
[13] = SOC Investigations, possibly related
[14] = SOC Investigations, probably not related
[15] = SOC Skin and subcutaneous tissue disorders, possibly related
[16] = healthy subjects, 5 days dosing

For `O=C(O)[C@H]1C2CCC(CC2)[C@@H]1Nc1nc(-c2n[nH]c3ncc(F)cc23)nc(C2CC2)c1F` [ZSP1273], the “AUC0-∞,ss, intra-individual coefficient of variation” value ([1]; all subjects) was 23.4%, the “AUC0-∞,ss, geometric mean ratio co-administration/monotherapy” value ([1]; all subjects, no-effect boundary 80%–125%) was 91.8% and the “AUC0-t,ss” value [1, 5] was 14,939.0 ± 6,027.0 (40.3%) h*ng/mL. The “AUC0-τ,ss” value [1, 5] was 13,656.5 ± 4,758.0 (34.8%) h*ng/mL, the “AUC0-∞,ss” value [1, 5] was 15,865.8 ± 6,635.4 (41.8%) h*ng/mL and the CLss/F [1, 5] was 48.6 ± 15.3 (31.4%) L/h. The “Cmax,ss” value [1, 5] was 6,270.0 ± 3,369.7 (53.7%) ng/mL, the Vz/F [1, 5] was 923.8 ± 659.5 (71.4%) L and the “t1/2,ss” value [1, 5] was 14.0 ± 10.3 (73.5%) h. For the same compound, the λz [1, 5] was 0.070 ± 0.041 (58.7%) 1 /h, the “Tmax,ss” value [1, 5] was 1.50 (0.25, 4.00) h and the Ctrough ([1]; co-administration ZSP1273 600 mg QD + oseltamivir 75 mg BID, oral, 5 days, plasma) was 77.7 ± 49.7 (64.0%) ng/mL. For the same compound, the “AUC0-t,ss, geometric mean” value [1, 6] was 13,926.7 h*ng/mL, the “AUC0-τ,ss, geometric mean” value [1, 6] was 12,964.7 h*ng/mL and the “Cmax,ss, geometric mean” value [1, 6] was 5,466.0 ng/mL. The “AUC0-∞,ss, geometric mean” value ([1]; co-administration ZSP1273 + oseltamivir, plasma, day 5, all subjects) was 14,749.3 h*ng/mL, the “AUC0-t,ss, intra-individual coefficient of variation” value [1, 7] was 19.9% and the “AUC0-τ,ss, intra-individual coefficient of variation” value [1, 7] was 18.6%. For the same compound, the “Cmax,ss, intra-individual coefficient of variation” value [1, 7] was 49.2%, the “AUC0-∞,ss, geometric mean” value ([1]; co-administration, subjects with AUC_%Extrap >20.0% or Rsq <0.800 excluded) was 14,219.8^b h*ng/mL and the “AUC0-t,ss, geometric mean ratio co-administration/monotherapy” value ([1]; human, in vivo) was 92.8%. For the same compound, the “AUC0-τ,ss, geometric mean ratio co-administration/monotherapy” value ([1]; human, in vivo) was 96.3%, the “Cmax,ss, geometric mean ratio co-administration/monotherapy” value ([1]; human, in vivo) was 99.9% and the “AUC0-t,ss” value [1, 8] was 16,529.6 ± 7,808.2 (47.2%) h*ng/mL. The “AUC0-τ,ss” value [1, 8] was 14,487.1 ± 5,519.8 (38.1%) h*ng/mL, the “AUC0-∞,ss” value [1, 8] was 18,392.1 ± 12,058.8 (65.6%) h*ng/mL and the CLss/F [1, 8] was 47.4 ± 17.8 (37.5%) L/h. For the same compound, the Vz/F [1, 8] was 1,006.5 ± 1,265.7 (125.8%) L, the “t1/2,ss” value [1, 8] was 17.8 ± 33.6 (189.1%) h and the λz [1, 8] was 0.074 ± 0.046 (62.5%) 1 /h. For the same compound, the “Tmax,ss” value [1, 8] was 0.88 (0.25, 4.01) h, the Ctrough ([1]; monotherapy (ZSP1273 600 mg QD or oseltamivir 75 mg BID, oral, 5 days), plasma) was 86.3 ± 77.4 (89.6%) ng/mL and the “Cmax,ss” value ([1]; monotherapy (ZSP1273 tablets 600 mg QD or oseltamivir capsules 75 mg BID, oral, 5 days), plasma, day 5) was 6,421.7 ± 3,660.6 (57.0%) ng/mL. For the same compound, the “AUC0-t,ss, geometric mean” value ([1]; monotherapy, plasma, day 5) was 15,031.4 h*ng/mL, the “AUC0-τ,ss, geometric mean” value ([1]; monotherapy, plasma, day 5) was 13,543.4 h*ng/mL and the “Cmax,ss, geometric mean” value ([1]; monotherapy, plasma, day 5) was 5,517.1 ng/mL. For the same compound, the “AUC0-∞,ss, geometric mean” value ([1]; monotherapy, plasma, day 5, all subjects) was 16,036.9 h*ng/mL, the “AUC0-∞,ss, geometric mean” value ([1]; monotherapy, subjects with AUC_%Extrap >20.0% or Rsq <0.800 excluded) was 15,576.5^a h*ng/mL and the “AUC0-∞,ss, geometric mean ratio co-administration/monotherapy” value [1, 9] was 94.5%. The “AUC0-∞,ss, intra-individual coefficient of variation” value [1, 9] was 18.8%, the “pulmonary viral loads and mortality” value (influenza A (2009 H1N1)) was “effectively reduced pulmonary viral loads and mortality” and the “plasma protein binding rate” value [2] was “greater than 98.9%”. The “safety in healthy volunteers” value [3] was “no apparent safety concerns were noticed”, the “Gastrointestinal disorders (SOC): Cases (%)” value ([4]; AE by system organ class) was 5 (13.9) Cases (%) and the “Gastrointestinal disorders (SOC): Occurrences” value ([4]; AE by system organ class) was 5. The “General disorders and administration site conditions (SOC): Cases (%)” value ([4]; AE by system organ class) was 0 Cases (%), the “General disorders and administration site conditions (SOC): Occurrences” value ([4]; AE by system organ class) was 0 and the “Infections and infestations (SOC): Cases (%)” value ([4]; AE by system organ class) was 0 Cases (%). The “Infections and infestations (SOC): Occurrences” value ([4]; AE by system organ class) was 0, the “Investigations (SOC): Cases (%)” value ([4]; AE by system organ class) was 8 (22.2) Cases (%) and the “Investigations (SOC): Occurrences” value ([4]; AE by system organ class) was 18. The “Skin and subcutaneous tissue disorders (SOC): Cases (%)” value ([4]; AE by system organ class) was 1 (2.8) Cases (%), the “Skin and subcutaneous tissue disorders (SOC): Occurrences” value ([4]; AE by system organ class) was 1 and the “Diarrhea: Cases (%)” value [4, 10] was 5 (13.9) Cases (%). The “Diarrhea: Occurrences” value [4, 10] was 5, the “Fever: Cases (%)” value [4, 11] was 0 Cases (%) and the “Fever: Occurrences” value [4, 11] was 0. For the same compound, the “Upper respiratory tract infection (URTI): Cases (%)” value [4, 12] was 0 Cases (%), the “Upper respiratory tract infection (URTI): Occurrences” value [4, 12] was 0 and the “Decreased blood triglycerides: Cases (%)” value [4, 13] was 0 Cases (%). The “Decreased blood triglycerides: Occurrences” value [4, 13] was 0, the “Decreased high-density lipoprotein (HDL): Cases (%)” value [4, 13] was 1 (2.8) Cases (%) and the “Decreased high-density lipoprotein (HDL): Occurrences” value [4, 13] was 1. The “Decreased neutrophil count: Cases (%)” value [4, 13] was 0 Cases (%), the “Decreased neutrophil count: Occurrences” value [4, 13] was 0 and the “Increased blood cholesterol: Cases (%)” value [4, 13] was 2 (5.6) Cases (%). For the same compound, the “Increased blood cholesterol: Occurrences” value [4, 13] was 2, the “Increased blood creatinine: Cases (%)” value [4, 13] was 3 (8.3) Cases (%) and the “Increased blood creatinine: Occurrences” value [4, 13] was 3. The “Increased blood triglycerides: Cases (%)” value [4, 13] was 4 (11.1) Cases (%), the “Increased blood triglycerides: Occurrences” value [4, 13] was 4 and the “Increased blood uric acid: Cases (%)” value [4, 13] was 2 (5.6) Cases (%). The “Increased blood uric acid: Occurrences” value [4, 13] was 2, the “Increased gamma-glutamyl transferase (GGT): Cases (%)” value [4, 13] was 1 (2.8) Cases (%) and the “Increased gamma-glutamyl transferase (GGT): Occurrences” value [4, 13] was 1. The “Increased lipase: Cases (%)” value [4, 13] was 1 (2.8) Cases (%), the “Increased lipase: Occurrences” value [4, 13] was 1 and the “Increased low-density lipoprotein (LDL): Cases (%)” value [4, 13] was 2 (5.6) Cases (%). The “Increased low-density lipoprotein (LDL): Occurrences” value [4, 13] was 2, the “Crystals present in urine: Cases (%)” value [4, 14] was 0 Cases (%) and the “Crystals present in urine: Occurrences” value [4, 14] was 0. The “Decreased hemoglobin: Cases (%)” value [4, 14] was 2 (5.6) Cases (%), the “Decreased hemoglobin: Occurrences” value [4, 14] was 2 and the “Increased urine specific gravity: Cases (%)” value [4, 14] was 0 Cases (%). The “Increased urine specific gravity: Occurrences” value [4, 14] was 0, the “Nitrites present in urine: Cases (%)” value [4, 14] was 0 Cases (%) and the “Nitrites present in urine: Occurrences” value [4, 14] was 0. For the same compound, the “Positive urine occult blood: Cases (%)” value [4, 14] was 0 Cases (%), the “Positive urine occult blood: Occurrences” value [4, 14] was 0 and the “Protein detected in urine: Cases (%)” value [4, 14] was 0 Cases (%). For the same compound, the “Protein detected in urine: Occurrences” value [4, 14] was 0, the “Acneiform dermatitis: Cases (%)” value [4, 15] was 0 Cases (%) and the “Acneiform dermatitis: Occurrences” value [4, 15] was 0. The “Maculopapular rash: Cases (%)” value [4, 15] was 1 (2.8) Cases (%), the “Maculopapular rash: Occurrences” value [4, 15] was 1 and the “diarrhea, incidence” value ([4]; drug-related adverse event) was 13.9%. For the same compound, the “increased blood triglycerides, incidence” value ([4]; drug-related adverse event) was 11.1%, the “subjects with drug-related adverse events, incidence” value ([4]; healthy subjects) was 30.6% and the “At least one treatment-emergent adverse event (TEAE): Cases (%)” value [4, 16] was 12 (33.3) Cases (%). For the same compound, the “At least one treatment-emergent adverse event (TEAE): Occurrences” value [4, 16] was 24, the “At least one treatment-emergent adverse event related to drugs: Cases (%)” value [4, 16] was 11 (30.6) Cases (%) and the “At least one treatment-emergent adverse event related to drugs: Occurrences” value [4, 16] was 22. The efficacy versus placebo (influenza A) was “higher efficacy than placebo in ameliorating influenza symptoms and lowering the viral load”.
